Measured values published in ChEMBL document CHEMBL4665708, “Generation of Stilbene Antimicrobials against Multiresistant Strains of Staphylococcus aureus through Biotransformation by the Enzymatic Secretome of Botrytis cinerea” (J Nat Prod, 2020).
Values after ≈ are worked out from the molar mass of the structure shown. Active and inactive are the calls of the source. No cut-off for these calls is given here.

What was measured:
Staphylococcus aureus [1] = test: Antimicrobial activity against methicillin-resistant Staphylococcus aureus ATCC 33591 after 24 hrs by broth microdilution method; type: functional
HepG2 = test: Cytotoxicity against human HepG2 cells after 3 days by microplate reader analysis; type: cell-based; conditions: HepG2, 72 h
MCF-10A = test: Cytotoxicity against human MCF-10A cells after 3 days by microplate reader analysis; type: cell-based; conditions: 72 h
Pseudomonas aeruginosa = test: Antimicrobial activity against Pseudomonas aeruginosa ATCC 27853 at 256 ug/ml after 24 hrs by broth microdilution assay; type: functional, organism-based; conditions: dose 256.0 µg/ml
[2] = Selectivity ratio of IC50 for human MCF-10A cells to MIC for methicillin-resistant Staphylococcus aureus ATCC 33591; type: toxicity
Staphylococcus aureus [3] = test: Antimicrobial activity against vancomycin-resistant Staphylococcus aureus 510 after 24 hrs by broth microdilution method; type: functional
[4] = Selectivity ratio of IC50 for human MCF-10A cells to MIC for vancomyicin-resistant Staphylococcus aureus 510; type: toxicity

| Compound | MIC (Staphylococcus aureus [1]) [µM] | IC50 (HepG2) [µM] | IC50 (MCF-10A) [µM] | Activity (Pseudomonas aeruginosa) | selectivity ratio [2] | MIC (Staphylococcus aureus [3]) [µM] | selectivity ratio [4] |
| --- | --- | --- | --- | --- | --- | --- | --- |
| Oc1ccc([C@H]2Oc3ccc(/C=C/c4cc(O)cc(O)c4)cc3[C@@H]2c2cc(O)cc(O)c2)cc1 (relative stereo) | 35 (≈ 15.9 µg/mL) | 48 | 48 | inactive | 1.4 |  |  |
| COc1cc(OC)cc([C@@H]2[C@@H](c3cc(OC)cc(OC)c3)[C@H](c3ccc(O)cc3)O[C@@H]2c2ccc(O)cc2)c1 | 121 (≈ 64 µg/mL) | > 95 | > 95 | inactive |  |  |  |
| COc1cc(OC)cc([C@@H]2[C@@H](c3ccc(O)cc3)c3c(O)cc(O)cc3[C@H]2[C@H](OC)c2ccc(O)cc2)c1 | > 249 |  |  | inactive |  |  |  |
| COc1cc(OC)c2c(c1)[C@@H]([C@@H](OC)c1ccc(O)cc1)[C@H](c1cc(O)cc(O)c1)[C@H]2c1ccc(O)cc1 | > 249 |  |  | inactive |  |  |  |
| COc1cc(OC)cc(C(Oc2ccc(/C=C/c3cc(O)cc(O)c3)cc2)C(OC)c2ccc(O)cc2)c1 (centres undefined) | 62 (≈ 31.9 µg/mL) | 29 | 23 | inactive | 0.4 |  |  |
| COc1cc(/C=C/c2ccc(OC(c3cc(O)cc(O)c3)C(OC)c3ccc(O)cc3)cc2)cc(OC)c1 (racemic) | 8 (≈ 4.12 µg/mL) | 23 | 27 | inactive | 3.4 | 4 (≈ 2.06 µg/mL) | 6.9 |
| COc1cc(OC)cc([C@@H]2[C@@H](c3ccc(O)cc3)c3c(O)cc(O)cc3[C@H]2C(O)c2ccc(O)cc2)c1 (some centres undefined) | > 256 |  |  | inactive |  |  |  |
| COc1cccc2c1C(=O)c1c(O)c3c(c(O)c1C2=O)C[C@@](O)(C(=O)CO)C[C@@H]3O[C@H]1C[C@H](N)[C@H](O)[C@H](C)O1 [DOXORUBICIN] |  | 1.18 | 0.31 |  |  |  |  |
| CN[C@H](CC(C)C)C(=O)N[C@H]1C(=O)N[C@@H](CC(N)=O)C(=O)N[C@H]2C(=O)N[C@H]3C(=O)N[C@H](C(=O)N[C@H](C(=O)O)c4cc(O)cc(O)c4-c4cc3ccc4O)[C@H](O)c3ccc(c(Cl)c3)Oc3cc2cc(c3O[C@@H]2O[C@H](CO)[C@@H](O)[C@H](O)[C@H]2O[C@H]2C[C@](C)(N)[C@H](O)[C@H](C)O2)Oc2ccc(cc2Cl)[C@H]1O [VANCOMYCIN] | 0.69 (≈ 1 µg/mL) |  |  | inactive |  | 22 (≈ 31.9 µg/mL) |  |
| COc1cc(OC)cc([C@@H]2[C@@H](c3ccc(O)cc3)c3c(OC)cc(OC)cc3[C@H]2[C@@H](OC)c2ccc(O)cc2)c1 | 15 (≈ 8.14 µg/mL) | 15 | 17 | inactive | 1.1 |  |  |
| COc1cc(OC)c2c(c1)[C@H]1[C@H](c3ccc(O)cc3)c3c(OC)cc(OC)cc3[C@H]1[C@@H]2c1ccc(O)cc1 | 31 (≈ 15.8 µg/mL) | 22 | 24 | inactive | 0.7 |  |  |
| COc1cc(OC)cc([C@@H]2[C@@H](c3ccc(O)cc3)c3c(O)cc(O)cc3[C@H]2[C@@H](OC)c2ccc(O)cc2)c1 | > 249 |  |  | inactive |  |  |  |
| COc1cc(OC)cc([C@@H]2[C@@H](c3ccc(O)cc3)c3c(OC)cc(OC)cc3[C@H]2[C@H](O)c2ccc(O)cc2)c1 | 121 (≈ 64 µg/mL) |  |  | inactive |  |  |  |
| Oc1ccc([C@@H]2c3c(O)cc(O)cc3[C@H]3[C@H](c4ccc(O)cc4)c4c(O)cc(O)cc4[C@@H]23)cc1 [PALLIDOL] | > 282 |  |  | inactive |  |  |  |
| COc1cc(OC)cc([C@@H]2[C@@H](c3ccc(O)cc3)c3c(OC)cc(OC)cc3[C@H]2[C@@H](O)c2ccc(O)cc2)c1 | 121 (≈ 64 µg/mL) |  |  | inactive |  |  |  |
| COc1cc(/C=C/c2ccc(O)cc2)cc(OC)c1 [PTEROSTILBENE] | 31 (≈ 7.95 µg/mL) |  |  | inactive |  |  |  |
| COc1cc(OC)cc(C(C(OC)OC)C(c2cc(OC)cc(OC)c2)C(c2ccc(O)cc2)c2ccc(O)cc2)c1 (centres undefined) | 14 (≈ 8.05 µg/mL) | 19 | 19 | inactive | 1.4 |  |  |
| COc1cc(/C=C/c2ccc(OC(c3cc(OC)cc(OC)c3)C(O)c3ccc(O)cc3)cc2)cc(OC)c1 (centres undefined) | > 242 |  |  | inactive |  |  |  |
| COc1cc(OC)cc([C@H]2c3cc(/C=C/c4cc(O)cc(O)c4)ccc3O[C@@H]2c2ccc(O)cc2)c1 (relative stereo) | 4 (≈ 1.93 µg/mL) | 27 | 29 | inactive | 7.2 | 4 (≈ 1.93 µg/mL) | 7.2 |
| Oc1ccc(/C=C/c2cc(O)cc(O)c2)cc1 [RESVERATROL] | > 561 |  |  | inactive |  |  |  |
| COC(c1ccc(O)cc1)[C@@H]1c2cc(O)cc(O)c2[C@H](c2ccc(O)cc2)[C@H]1c1cc(O)cc(O)c1 (some centres undefined) | > 263 |  |  | inactive |  |  |  |
| COc1cc(/C=C/c2ccc3c(c2)[C@H](c2cc(OC)cc(OC)c2)[C@@H](c2ccc(O)cc2)O3)cc(OC)c1 | > 251 | 29 | 25 | inactive | < 0.1 |  |  |
| COc1cc(OC)cc([C@@H](C(OC)OC)[C@@H](c2cc(O)cc(O)c2)C(c2ccc(O)cc2)c2ccc(O)cc2)c1 | > 234 |  |  | inactive |  |  |  |
| COc1cc(/C=C/c2ccc3c(c2)[C@H](c2cc(O)cc(O)c2)[C@@H](c2ccc(O)cc2)O3)cc(OC)c1 | 22 (≈ 10.6 µg/mL) | 27 | 66 | inactive | 32 | 2 (≈ 0.965 µg/mL) | 32 |
